Results reported in patent publication US4265901A, “2-Oxybenzimidazoline compounds” (priority 1979, dated 1981).
Where a name gives a salt, the structure may show the parent alone.

What was measured:
adult housefly = assay: Efficacy against adult housefly, calves subcutaneous pellets (Example 20); format: in vivo, Musca domestica; settings: calf 651, subcutaneous pellets about 5 mg./kg.; test day per line
Description: For the adult housefly test, 10 ml. of serum were employed to saturate a wick which was placed in a petri dish. Twenty-five chilled houseflies were placed in the dish which was then incubated for 24 hours at 27° C. and 50% relative humidity. After the end of the twenty-four hours, the efficacy of the candidate compound was determined as the percent mortality of housefly, adjusted as for blowfly by normal mortality in a control and reported according to the same scale as above.
The compound of Example 2, 2-hydroxy-2-(1,1,2,2-tetrafluoroethyl)-4-nitro-6-(trifluoromethyl)benzimidazoline sodium salt, was formulated neat into tablets, each containing about 85 mg. of compound.
These pellets were implanted in the right shoulder area of two calves, weighing 400 and 373 kilograms respectively, to supply a dose of about 5 mg./kg. (animals #651 and 1511, respectively). Another calf (animal #656) was maintained as a control and two additional calves weighing 336 and 350 kilograms (animals #654 and 655, respectively) received pellets of 2-(1,1,2,2-tetrafluoroethyl)-4-nitro-6-(trifluoromethyl)benzimidazole, to supply a dose of about 5 mg./kg. of compound.
As described in preceding examples, blood samples were withdrawn and analyzed for the concentration of the compound in the blood and percent efficacy against adult housefly and blowfly larvae.

blowfly larvae = assay: Efficacy against blowfly larvae, calves intravenous injection (Example 17); format: in vivo, Phormia regina; settings: daily i.v. 0.5 to 1.5 mg/kg escalating, day per line
Description: Representative compounds of the present invention were evaluated against larvae of blowfly (Phormia regina) and against adult housefly (Musca domestica). In these evaluations, the candidate compound was administered to each of two male guinea pigs weighing from about 400 grams to about 1000 grams. Administration was via the intraperitoneal route, the compound having been formulated in sesame oil. At twenty-four hours following administration of the compound, blood was withdrawn from the guinea pigs. The serum portion was isolated and blowfly larvae and adult houseflies were fed on the serum. For the blowfly assay, 10 ml. of serum were placed in a test tube with a wick onto which 50 blowfly larvae were placed. The covered test tube was incubated at 27° C. for 24 hours, at which time efficacy of the candidate compound was determined as the percent mortality of the blowfly larvae, adjusted by normal mortality in a control, and reported according to the following rating scale:
A group of three calves each weighing about 220 kilograms was employed. […]
On each day of the evaluation, immediately preceding that day's injection, a sample of blood was withdrawn from each calf. The concentration of the compound in the blood was determined; and the efficacy of the compound against adult housefly and blowfly larvae was assayed by the method described in Example 15. […]

O=[N+]([O-])c1cc(C(F)(F)F)cc2c1NC(O)(C(F)(F)C(F)F)N2 (stereo not drawn) [Example 2, 2-Hydroxy-2-(1,1,2,2-Tetrafluoroethyl)-4-Nitro-6-(Trifluoromethyl)Benzimidazoline, Sodium Salt, and Hydrate]
100%: % Efficacy, Adult Housefly (adult housefly) | % Efficacy, Blowfly Larvae (blowfly larvae; calf 986) | % Efficacy, Blowfly Larvae (blowfly larvae; calf 991)
